Here are results for three compounds from patent US12667583B2, “Method for preventing or treating a cornavirus infectious disease” (HENAN GENUINE BIOTECH CO., LTD., priority 2020, dated 2026).

The structures appear in SMILES notation. “Also recorded” adds a separate entry of the source.

One data set can be described thus: in vitro. The conditions noted are these: human.
The next data set has as its system 2019-nCoV (COVID-19). The data set can be described thus: Inhibitory effect against 2019-nCoV (COVID-19) viruses in Huh 7 cell model, viral RNA by qRT-PCR. The data set is classed as cell-based. The conditions noted are these: for SI: CC50/EC50, Huh 7 cells; for EC50: viral RNA copies in supernatant, 48 h. As for the experimental part: The antiviral activity assay was performed on a Huh 7 cell model. Three replicate wells were set for each assay and the assay was repeated three times in total.
1) In each well of a 24-well cell culture plate, 5×10^4 Huh 7 cells were inoculated. Under the culture conditions of 37° C. and 5% CO2, when the confluence reached 60%, 200 μL of 2019-nCoV (COVID-19) virus solution diluted with a DMEM medium containing 2% FBS were added to each well respectively according to the multiplicity of infection MOI of 0.005. After adsorption for 1 h in a 5% CO2 incubator at 37° C., the virus solution was discarded. The positive control drug and the Azvudine amine phosphate prodrug CL-236 were subjected to 2-fold dilution with a DMEM medium containing 2% FBS from the maximum non-toxic concentration, and added to the cell plate at 500 μL/well. Meanwhile, a control group (drug-free group) was set and the supernatant virus solution was collected at 48 h after infection.
2) RNA quantification of collected viruses by real-time RT-PCR (qRT-PCR):
From the collected supernatant virus solutions, 140 μL were measured separately, and subjected to RNA extraction according to the instruction of the QIAamp viral RNA mini kit. The qRT-PCR detection was carried out using the One Step TB Green PrimeScript PLUS RT-PCR Kit (Perfect Real Time), and the primers were RBD-qF1: 5′-[…]-3′ (SEQ. ID. NO. 1); and RBD-qR1:5′-[…]-3′(SEQ. ID. NO. 2).
The total volume of the reaction system was 20 μL:10 μL of 2× One Step TB Green RT-PCR Buffer 4, 1.2 μL of TaKaRa Ex Taq HS Mix, 0.4 μL of PrimeScript PLUS RTase Mix, 0.8 μL each of RBD-qF1 and RBD-qR1, 0.4 μL of ROX Reference Dye (50×), 2 μL of viral RNA, and 4.4 μL of RNase Free dH2O. The reaction parameters were as follows: reverse transcription at 42° C. for 5 min, pre-denaturation at 95° C. for 10 s, PCR for 40 cycles including denaturation at 95° C. for 10 s and annealing and extension at 60° C. for 30 s.
3) The inhibition rates of the drug at the concentrations were calculated. Inhibition rate (%)=1−viral RNA copies in experimental group/viral RNA copies in drug-free group×100%. At the same time, the median effective concentration (EC50) and therapeutic index (TI) of the drug were calculated, therapeutic index (TI)=concentration cytotoxicity 50% (CC50)/median effective concentration (EC50).

In another data set the test system is novel coronaviruses. The data set can be described thus: in vitro antiviral activity in MRC-5 cells infected with the novel coronaviruses. The data set is classed as cell-based. The conditions noted are these: MRC5. The source says:
The inventors have determined the in vitro antiviral activity of Compound 1 in MRC-5 cells infected with the novel coronaviruses.

The subject of data set [1] is novel coronavirus (COVID-19) pneumonia. The data set can be described thus: Clinical trial in patients with novel coronavirus (COVID-19) pneumonia. The conditions noted are these: for Clinical advantage versus control (nucleic acid clearance rate, course of clearance, cure rate, course of cure): compared with the conventional treatment (Kaletra control).
The test system of another data set is AIDS. The following applies: as an anti-AIDS drug; cited from earlier work.
Where [2] appears, read: Severe acute respiratory syndrome coronavirus 2, Huh 7 cells.
Setting [3] is: individual patients, 10 per group, Azvudine 5 mg daily oral, Kaletra + arbidol + interferon control.

In the case of `CC(C)OC(=O)[C@H](C)NP(=O)(OCC1(N=[N+]=[N-])OC(n2ccc(N)nc2=O)C(F)C1O)Oc1ccccc1` (stereo partly shown) [CL-236], in “in vitro”, the CC50 is 66.2 µM. Moreover, the SI in the data set with 2019-nCoV (COVID-19) is reported as 20.7. In addition, the inhibition at 0.1 µM in the data set with 2019-nCoV (COVID-19) (Severe acute respiratory syndrome coronavirus 2, 0.1 uM, Huh 7 cells, MOI 0.005, 48 h after infection, read-out: Virus Inhibition Rate (%)) came out at 9.38%. Moreover, in the data set on 2019-nCoV (COVID-19) (Severe acute respiratory syndrome coronavirus 2, 0.4 uM, Huh 7 cells, MOI 0.005, 48 h after infection, read-out: Virus Inhibition Rate (%)), the inhibition at 0.4 µM came out at 18.8%. The inhibition at 1.6 µM in the data set with 2019-nCoV (COVID-19) (Severe acute respiratory syndrome coronavirus 2, 1.6 uM, Huh 7 cells, MOI 0.005, 48 h after infection, read-out: Virus Inhibition Rate (%)) is 37.5%. In the data set with 2019-nCoV (COVID-19) (Severe acute respiratory syndrome coronavirus 2, 6.4 uM, Huh 7 cells, MOI 0.005, 48 h after infection, read-out: Virus Inhibition Rate (%)), the inhibition at 6.4 µM came out at 65.6%. The inhibition at 25.6 µM in the data set on 2019-nCoV (COVID-19) (Severe acute respiratory syndrome coronavirus 2, 25.6 uM, Huh 7 cells, MOI 0.005, 48 h after infection, read-out: Virus Inhibition Rate (%)) was determined as 75%. Moreover, the inhibition at 102.4 µM in the data set with 2019-nCoV (COVID-19) (Severe acute respiratory syndrome coronavirus 2, 102.4 uM, Huh 7 cells, MOI 0.005, 48 h after infection, read-out: Virus Inhibition Rate (%)) amounted to 81.2%. Besides, the EC50 in the data set on 2019-nCoV (COVID-19) (setting [2]) was found to be 3.2 µM.
In the case of `[N-]=[N+]=NC1(CO)OC(n2ccc(N)nc2=O)C(F)C1O` (stereo not shown) [Compound 1, Azvudine], a half-maximal effect in the data set on novel coronaviruses (EC50) was put at 25 µM. Moreover, the “Clinical advantage versus control (nucleic acid clearance rate, course of clearance, cure rate, course of cure)” value in data set [1] is listed as “significant clinical therapeutic advantages”. Besides, the “Clinical advantage versus control (nucleic acid clearance rate, course of clearance, cure rate, course of cure)” value in data set [1] (listed as compound of formula (1)) is given as “obvious advantages”. Also, the “Drug-related toxic and side effects during the treatment” value in data set [1] (human, in vivo) was “no drug-related toxic and side effects were found”. In addition, in data set [1] (setting [3]), the “From inclusion confirmed by nucleic acid test to clearance” value is reported as “Clearance: day 4; also recorded: Clearance: day 2; also recorded: one week; also recorded: Clearance: day 3” and the “From inclusion confirmed by nucleic acid test to discharge” value is recorded as “Discharge: day 7; also recorded: Discharge: day 6; also recorded: Discharge: day 8; also recorded: Discharge: day 5”. Further, in data set [1] (of 10 patients in the group), the “Patients discharged within 8 days” value is reported as “seven” and the “Patients turned negative by the nucleic acid test” value is 10. In data set [1] (one patient who had failed supportive treatment with Kaletra), the “Time to turn negative after start of treatment” value was “three days”. The “Safety in phase II clinical trials” value with AIDS is listed as “good safety”.
With `CCC(CC)COC(=O)[C@H](C)N[P@](=O)(OC[C@H]1O[C@@](C#N)(c2ccc3c(N)ncnn23)[C@H](O)[C@@H]1O)Oc1ccccc1` [Remdesivir, reference compound], the CC50 in the data set “in vitro” was over 45 µM. Moreover, the SI in the data set on 2019-nCoV (COVID-19) is over 30.0. Besides, a half-maximal response in the data set on 2019-nCoV (COVID-19) (setting [2]) (EC50) required 1.5 µM.
